# Where two headings read alike, the source gives them in different places.
# What was measured:
# SF-268 = assay: Cell proliferation assay, CNS Cancer SF-268; type: cell-based; conditions: Homo sapiens, read-out: GI50 or IC50, CNS Cancer SF-268
# Method: (§1) The compounds listed in Table III were prepared using the procedures outlined in the above Examples.
# MCF-7 [1] = assay: Cell proliferation assay (panel), Breast Cancer MCF-7; type: cell-based; conditions: Homo sapiens, MCF7; read-out: GI50 or IC50, Breast Cancer MCF-7
# Method: (§2) The compounds listed in Table IV were prepared using the procedures outlined in the above Examples.
# NCI-ADR = assay: Cell proliferation assay, Breast Cancer NCI-ADR; type: cell-based; conditions: Homo sapiens, NCI/ADR-RES; read-out: GI50 or IC50, Breast Cancer NCI-ADR
# Method: as §2
# SK-MEL-2 = assay: Cell proliferation assay, Melanoma SK-MEL-2; type: cell-based; conditions: Homo sapiens, read-out: GI50 or IC50, Melanoma SK-MEL-2
# Method: as §2
# UO-31 = assay: Cell proliferation assay, Renal Cancer UO-31; type: cell-based; conditions: Homo sapiens, read-out: GI50 or IC50, Renal Cancer UO-31
# Method: as §2
# HL60-MX1 (MDR) = assay: Cell proliferation assay, Leukemia HL60-MX1 (MDR); type: cell-based; conditions: read-out: GI50 or IC50, Leukemia HL60-MX1 (MDR)
# Method: as §1
# PC-3 = assay: Cell proliferation assay, Prostate Cancer PC-3; type: cell-based; conditions: Homo sapiens, read-out: GI50 or IC50, Prostate Cancer PC-3
# Method: as §2
# NCI-H460 [2] = assay: Cell proliferation assay, NSC Lung Cancer NCI-H460; type: cell-based; conditions: Homo sapiens, read-out: GI50 or IC50, NSC Lung Cancer NCI-H460
# Method: as §1
# HL-60 = assay: Cell proliferation assay, Leukemia HL-60; type: cell-based; conditions: Homo sapiens, read-out: GI50 or IC50, Leukemia HL-60
# Method: as §1
# H69-AR (MDR) = assay: Cell proliferation assay, SC Lung Cancer H69-AR (MDR); type: cell-based; conditions: Homo sapiens, H69AR; read-out: GI50 or IC50, SC Lung Cancer H69-AR (MDR)
# Method: as §1
# OVCAR-3 = assay: Cell proliferation assay, Ovarian Cancer OVCAR-3; type: cell-based; conditions: Homo sapiens, read-out: GI50 or IC50, Ovarian Cancer OVCAR-3
# Method: as §2
# HCT-15 = assay: Cell proliferation assay, Colon Cancer HCT-15; type: cell-based; conditions: Homo sapiens, read-out: GI50 or IC50, Colon Cancer HCT-15
# Method: as §1
# MES-SA/Dx5 = assay: Cell proliferation assay, Uterine MES-SA/Dx5; type: cell-based; conditions: Homo sapiens, read-out: GI50 or IC50, Uterine MES-SA/Dx5
# Method: as §2
# NCI-H460 [3] = assay: NCI-H460 human xenograft study in nude mice; conditions: i.v., 320 25 mg/Kg days 1-5, etoposide 35 mg/Kg days 7, 10, 14; for anti-tumor activity with respect to final tumor volume: doxorubicin 5 mg/Kg days 7 and 14, day 28
# Method: (§6) An acute toxicological study was performed for 320 prior to the xenograft study. Two groups (n=3) of female CD-1 mice were injected intraperitoneally (i.p.) with either 10 or 100 mg/Kg of 320 dissolved in 5% DMSO, 10% PEG400. […] A second MTD study was done by the intravascular (i.v.) route using 4 groups of CD-1 mice for the following: vehicle, 3, 10 and 30 mg/Kg injections which were to be given daily for days 1-5 and study duration of two weeks, at which point survivors would be euthanised.
# All injections were by the i.v. route; groups were 5 NCR nu/nu mice. The cell line NCI-H460 was used to produce the tumors that appeared by day 7. […] All survivors to day 28 were euthanised at this time and tumor volumes measured.
# MCF-7/ADR = assay: Cell proliferation assay, MDR line MCF-7/ADR; type: cell-based, human; conditions: 48 hrs exposure; less potent in MCF-7/ADR
# Text: (§3) The MCF-7 cell line, the MDR cell line, and the MCF-7/ADR cell line were used. Alamar Blue™ was used to quantitate cell viability.
# human Topo IIα = target: T1, human Topo IIα (Homo sapiens, UniProt P11388); assay: Topo IIα decatenation inhibition assay (kDNA, agarose gel); type: biochemical; conditions: sample gel, FIG. 2; kDNA substrate
# T1 construct: purchased Topogen Inc. Columbus, Ohio
# T1 sequence (P11388 whole entry): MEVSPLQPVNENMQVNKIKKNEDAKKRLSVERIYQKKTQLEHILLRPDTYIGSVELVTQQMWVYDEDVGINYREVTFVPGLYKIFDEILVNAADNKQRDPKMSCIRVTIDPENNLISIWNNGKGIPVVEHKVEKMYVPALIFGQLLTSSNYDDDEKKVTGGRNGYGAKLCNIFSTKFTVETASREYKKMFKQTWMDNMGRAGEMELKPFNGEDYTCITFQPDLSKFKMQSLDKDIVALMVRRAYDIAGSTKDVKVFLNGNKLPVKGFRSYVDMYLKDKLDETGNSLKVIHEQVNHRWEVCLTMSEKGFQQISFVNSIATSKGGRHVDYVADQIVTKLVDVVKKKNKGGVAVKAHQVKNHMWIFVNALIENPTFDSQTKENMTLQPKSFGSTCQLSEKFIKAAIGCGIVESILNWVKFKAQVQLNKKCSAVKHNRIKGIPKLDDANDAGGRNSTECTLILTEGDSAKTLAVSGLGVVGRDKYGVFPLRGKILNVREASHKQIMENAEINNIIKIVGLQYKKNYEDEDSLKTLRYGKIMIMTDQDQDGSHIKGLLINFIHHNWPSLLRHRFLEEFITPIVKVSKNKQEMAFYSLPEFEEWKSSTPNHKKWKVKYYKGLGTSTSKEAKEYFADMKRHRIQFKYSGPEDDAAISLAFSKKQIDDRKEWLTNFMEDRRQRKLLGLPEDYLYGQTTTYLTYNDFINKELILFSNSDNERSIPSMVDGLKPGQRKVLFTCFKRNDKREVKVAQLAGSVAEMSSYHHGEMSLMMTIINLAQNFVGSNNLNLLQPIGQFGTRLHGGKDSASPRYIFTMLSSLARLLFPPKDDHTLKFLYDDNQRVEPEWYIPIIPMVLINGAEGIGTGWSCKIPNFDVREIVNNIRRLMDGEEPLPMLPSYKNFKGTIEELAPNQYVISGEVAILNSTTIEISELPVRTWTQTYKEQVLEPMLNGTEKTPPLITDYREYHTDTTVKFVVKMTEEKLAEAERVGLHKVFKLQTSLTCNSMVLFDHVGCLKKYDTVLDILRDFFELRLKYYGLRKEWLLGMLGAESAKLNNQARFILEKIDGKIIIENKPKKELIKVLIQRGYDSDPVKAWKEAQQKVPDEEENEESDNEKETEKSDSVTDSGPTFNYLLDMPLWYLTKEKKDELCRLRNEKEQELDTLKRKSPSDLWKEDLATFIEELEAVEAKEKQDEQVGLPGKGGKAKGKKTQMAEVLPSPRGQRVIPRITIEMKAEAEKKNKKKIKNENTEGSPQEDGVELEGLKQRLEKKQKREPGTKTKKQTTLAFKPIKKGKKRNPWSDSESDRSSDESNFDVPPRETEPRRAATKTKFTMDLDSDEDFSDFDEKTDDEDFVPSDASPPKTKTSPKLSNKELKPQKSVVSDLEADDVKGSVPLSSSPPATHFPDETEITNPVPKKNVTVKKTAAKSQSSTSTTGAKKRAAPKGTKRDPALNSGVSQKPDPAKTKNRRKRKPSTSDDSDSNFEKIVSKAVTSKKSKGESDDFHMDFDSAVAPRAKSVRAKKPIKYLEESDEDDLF
# Text: When present, high molecular weight kDNA has not migrated from the loading well.
# The enzyme assays used for determining Topo IIα inhibition was either the ATP-dependent decatenation of high molecular weight kDNA (kinetoplast) as substrate or the relaxation of supercoiled pBR322 each incorporating human Topo IIα (Topogen Inc. Columbus, Ohio) and following literature protocols (Fortune, J. M. et al., J. Biol. Chem., 273(28), 17643-50 1998; Muller, M. T. et al., Biochemistry, 27(22), 8369-79, 1988). The 2.5 Kd mini-circle product derived from the catenated substrate is resolved on an agarose gel with ethidium bromide staining after electrophoresis. Likewise, the relaxed form of pBR322 is resolved from the faster moving supercoiled form during electrophoresis.
# [4] = mouse, in vivo, iv
# Method: as §6
# [5] = Acute toxicological study, i.p.; type: in vivo; conditions: female CD-1 mice, n=3, seven days
# Method: as §6
# [6] = target: TopoIIα-DNA covalent complex (Homo sapiens, UniProt P11388); assay: Topo IIα DNA covalent complex stabilization assay; type: biochemical; conditions: SDS trapping, proteinase K, FIG. 5
# TopoIIα-DNA covalent complex, sequence (P11388 whole entry, one chain of several): as the sequence (P11388 whole entry) above
# Text: (§4) To determine if the compound 320 stabilizes the TopoIIα-DNA covalent complex, cleavage intermediates are trapped by the addition of SDS to the reaction (Wilson Byl, J. A., et al., Biochemistry, 40, 712-718, 2001). After proteinase K digestion to digest any covalently bound Topo, the products are electrophoresed and stained with EtBr. The appearance of an additional band that is a linear form of the 2.5 Kb minicircle product is indicative of a compound's ability to stabilize the covalent complex.
# Topo I = target: T2, Topo I (Homo sapiens, UniProt P11387); assay: Topo I covalent complex stabilization test; type: biochemical; conditions: similar tests as for Topo IIα
# T2 sequence (P11387 1-765): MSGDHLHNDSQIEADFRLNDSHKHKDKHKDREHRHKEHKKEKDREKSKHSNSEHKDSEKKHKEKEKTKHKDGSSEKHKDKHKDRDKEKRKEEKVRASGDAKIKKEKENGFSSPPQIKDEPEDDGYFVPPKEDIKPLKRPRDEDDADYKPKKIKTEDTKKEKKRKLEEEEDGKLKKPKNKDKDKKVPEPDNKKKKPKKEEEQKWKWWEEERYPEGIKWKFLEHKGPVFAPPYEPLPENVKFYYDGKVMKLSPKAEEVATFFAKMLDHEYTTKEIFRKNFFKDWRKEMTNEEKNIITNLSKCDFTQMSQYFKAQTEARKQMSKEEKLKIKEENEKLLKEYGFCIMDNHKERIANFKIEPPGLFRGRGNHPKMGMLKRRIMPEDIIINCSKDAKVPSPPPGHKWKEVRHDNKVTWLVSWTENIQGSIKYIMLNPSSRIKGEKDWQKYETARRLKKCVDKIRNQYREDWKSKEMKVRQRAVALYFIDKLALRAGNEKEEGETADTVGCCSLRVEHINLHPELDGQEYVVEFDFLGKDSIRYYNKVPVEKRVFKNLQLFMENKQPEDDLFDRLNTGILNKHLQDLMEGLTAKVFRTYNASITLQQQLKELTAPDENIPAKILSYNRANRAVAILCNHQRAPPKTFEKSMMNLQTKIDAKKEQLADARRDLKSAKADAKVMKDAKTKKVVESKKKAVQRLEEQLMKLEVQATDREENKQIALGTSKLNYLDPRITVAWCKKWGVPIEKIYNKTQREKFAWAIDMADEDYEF
# Text: as §4
# MCF-7 [7] = assay: Cell proliferation assay, MCF-7; type: cell-based; conditions: Homo sapiens, MCF7; 48 hrs exposure, Alamar Blue, FIG. 6; no shift between MCF-7 and MCF-7/ADR; read-out: approximate IC50, cell proliferation
# Method: as §3
# The compounds listed in Table II were prepared using the procedures outlined in the above Examples.
# calf thymus DNA = assay: DNA-intercalator displacement assay (EtBr displacement); type: binding; conditions: FIG. 4
# Text: The curve labeled “Hoechst” corresponds to Hoechst 33258. Controls are: 1) no EtBr (min. fluorescence) and 2) no compound (max. fluorescence).
# (§5) Gel retardation assays were done on 320 and other biaryl/terphenyl acid compounds, to test for electrophoretic mobility shifts due to the presence of a substance that directly binds DNA.
# pBR322 plasmid = assay: Gel retardation assay (electrophoretic mobility shift); type: binding
# Text: as §5
IC50 (SF-268) [µM],IC50 (MCF-7 [1]) [µM],IC50 (NCI-ADR) [µM],IC50 (SK-MEL-2) [µM],IC50 (UO-31) [µM],IC50 (HL60-MX1 (MDR)) [µM],IC50 (PC-3) [µM],IC50 (NCI-H460 [2]) [µM],IC50 (HL-60) [µM],IC50 (H69-AR (MDR)) [µM],IC50 (OVCAR-3) [µM],IC50 (HCT-15) [µM],SMILES,IC50 (MES-SA/Dx5) [µM],anti-tumor activity with respect to final tumor volume (NCI-H460 [3]),further results
1 to 25,1 to 25,≤ 1,> 25,1 to 25,≤ 1,1 to 25,1 to 25,1 to 25,≤ 1,> 25,1 to 25,"O=C(Nc1ccncn1)c1ccc(Cl)c(-c2ccc(-c3ccccc3)cc2)c1 [Compound 37, 6-Chloro-[1,1′;4′,1″]terphenyl-3-carboxylic acid pyrimidin-4-ylamide]",≤ 1,,
1 to 25,1 to 25,≤ 1,1 to 25,1 to 25,≤ 1,1 to 25,1 to 25,1 to 25,≤ 1,1 to 25,1 to 25,"O=C(NC1CCNCC1)c1ccc(Cl)c(-c2ccc(-c3ccccc3)cc2)c1 [Compound 43, 6-Chloro-[1,1′;4′,1″]terphenyl-3-carboxylic acid piperidin-4-ylamide]",≤ 1,,
1 to 25,1 to 25,1 to 25,1 to 25,1 to 25,1 to 25,1 to 25,1 to 25,1 to 25,1 to 25,1 to 25,1 to 25,"CN(C)CCN(C(=O)c1ccc(Cl)c(-c2ccc(-c3ccccc3)cc2)c1)c1cccnc1 [Compound 52, 6-Chloro-[1,1′;4′,1″]terphenyl-3-carboxylic acid (2-dimethylamino-ethyl)-pyridin-3-yl-amide]",≤ 1,,
1 to 25,1 to 25,≤ 1,1 to 25,1 to 25,1 to 25,1 to 25,1 to 25,1 to 25,≤ 1,1 to 25,1 to 25,"O=C(NCC1CCCO1)c1ccc(Cl)c(-c2ccc(-c3ccccc3)cc2)c1 (stereo not shown) [Compound 58, 6-Chloro-[1,1′;4′,1″]terphenyl-3-carboxylic acid (tetrahydro-furan-2-ylmethyl)-amide]",≤ 1,,
,,,,,,,,,,,,"O=C(NC1(C(=O)O)Cc2ccccc2C1)c1ccc(Cl)c(-c2ccc(-c3ccccc3)cc2)c1 [Compound 320, 2-[(6″-Chloro-[1,1′;4′,1″]terphenyl-3″-carbonyl)-amino]-indan-2-carboxylic acid]",,some final growth inhibition,"initial tumor growth delay (NCI-H460 [3]): no initial growth delay; shift in potency, resistant line MCF-7/ADR versus parent line MCF-7 (MCF-7/ADR): no shift in potency; inhibition of Topo IIα decatenation (human Topo IIα): complete inhibition; survival, MTD study [4]: All other animals survived to the end of the study; survival, MTD study ([4]; 30 mg/kg): Two animals in the highest dose group survived with one animal dying after 3 injections; survival and side effects, acute toxicity ([5]; 10 mg/Kg (low dose)): all the low dose mice survived with no visible side effects; survival, acute toxicity ([5]; 100 mg/Kg (high dose)): Two mice in the high dose group survived; stabilization of the TopoIIα-DNA covalent complex (linear form of minicircle) [6]: does not stabilize the covalent complex; stabilization of the covalent complex in Topo I reactions (Topo I): no apparent stabilization of the covalent complex; IC50 (MCF-7 [7]): ~30 µM"
,,,,,,,,,,,,"O=C(O)C1c2ccccc2CCN1C(=O)c1ccc(Cl)c(-c2ccc(-c3ccccc3)cc2)c1 (stereo not shown) [Compound 337, 2-(6″-Chloro-[1,1′;4′,1″]terphenyl-3″-carbonyl)-1,2,3,4-tetrahydro-isoquinoline-1-carboxylic acid]",,,displacement of EtBr (intercalator) from DNA (calf thymus DNA): lack of intercalator displacement
,,,,,,,,,,,,CN1CCN(c2ccc3[nH]c(-c4ccc5[nH]c(-c6ccc(O)cc6)nc5c4)nc3c2)CC1 [Hoechst 33258],,,IC50 of EtBr displacement (calf thymus DNA): low μM; displacement of EtBr (intercalator) from DNA (calf thymus DNA): clearly demonstrates displacement of EtBr
,,,,,,,,,,,,"COc1cccc2c1C(=O)c1c(O)c3c(c(O)c1C2=O)C[C@@](O)(C(=O)CO)C[C@@H]3O[C@H]1C[C@H](N)[C@H](O)[C@H](C)O1 [doxorubicin, reference compound]",,least efficacy,"shift in potency, resistant line MCF-7/ADR versus parent line MCF-7 (MCF-7/ADR): 100 fold; inhibition of Topo IIα decatenation (human Topo IIα): partial inhibition; mobility shift of pBR322 plasmid on gels (pBR322 plasmid): Mobility shifts were seen"
,,,,,,,,,,,,COc1cc([C@@H]2c3cc4c(cc3[C@@H](O[C@@H]3O[C@@H]5CO[C@@H](C)O[C@H]5[C@H](O)[C@H]3O)[C@H]3COC(=O)[C@H]23)OCO4)cc(OC)c1O [etoposide],,greatest anti-tumor activity,initial tumor growth delay (NCI-H460 [3]): greatest initial growth delay; stabilization of the TopoIIα-DNA covalent complex (linear form of minicircle) [6]: the linear form is present
